In ChEMBL document CHEMBL5465560, “Selectivity Literature for EUbOPEN Chemogenomic Library” (2024):

Columns and labels:
[1] = molecular target: Receptor-type tyrosine-protein kinase FLT3 (Homo sapiens) (UniProt P36888); assay: Selectivity interaction (KinomeScan (DiscoverX)) EUB0000666a FLT3; conditions: at 10 µM
[2] = molecular target: Histone acetyltransferase KAT2B (Homo sapiens, UniProt Q92831); assay: Selectivity interaction (Bromodomain panel (DSF asssay)) EUB0000270b KAT2B
[3] = molecular target: T1, Phosphatidylinositol 4,5-bisphosphate 3-kinase catalytic subunit delta isoform (Homo sapiens) (UniProt O00329); assay: Selectivity interaction (ActivX KiNativ screen (ex vivo kinase selectivity in human PBMCs)) EUB0001619a PIK3CD; format: cell-based; conditions: PBMC, at 1 µM
T1 sequence (whole entry): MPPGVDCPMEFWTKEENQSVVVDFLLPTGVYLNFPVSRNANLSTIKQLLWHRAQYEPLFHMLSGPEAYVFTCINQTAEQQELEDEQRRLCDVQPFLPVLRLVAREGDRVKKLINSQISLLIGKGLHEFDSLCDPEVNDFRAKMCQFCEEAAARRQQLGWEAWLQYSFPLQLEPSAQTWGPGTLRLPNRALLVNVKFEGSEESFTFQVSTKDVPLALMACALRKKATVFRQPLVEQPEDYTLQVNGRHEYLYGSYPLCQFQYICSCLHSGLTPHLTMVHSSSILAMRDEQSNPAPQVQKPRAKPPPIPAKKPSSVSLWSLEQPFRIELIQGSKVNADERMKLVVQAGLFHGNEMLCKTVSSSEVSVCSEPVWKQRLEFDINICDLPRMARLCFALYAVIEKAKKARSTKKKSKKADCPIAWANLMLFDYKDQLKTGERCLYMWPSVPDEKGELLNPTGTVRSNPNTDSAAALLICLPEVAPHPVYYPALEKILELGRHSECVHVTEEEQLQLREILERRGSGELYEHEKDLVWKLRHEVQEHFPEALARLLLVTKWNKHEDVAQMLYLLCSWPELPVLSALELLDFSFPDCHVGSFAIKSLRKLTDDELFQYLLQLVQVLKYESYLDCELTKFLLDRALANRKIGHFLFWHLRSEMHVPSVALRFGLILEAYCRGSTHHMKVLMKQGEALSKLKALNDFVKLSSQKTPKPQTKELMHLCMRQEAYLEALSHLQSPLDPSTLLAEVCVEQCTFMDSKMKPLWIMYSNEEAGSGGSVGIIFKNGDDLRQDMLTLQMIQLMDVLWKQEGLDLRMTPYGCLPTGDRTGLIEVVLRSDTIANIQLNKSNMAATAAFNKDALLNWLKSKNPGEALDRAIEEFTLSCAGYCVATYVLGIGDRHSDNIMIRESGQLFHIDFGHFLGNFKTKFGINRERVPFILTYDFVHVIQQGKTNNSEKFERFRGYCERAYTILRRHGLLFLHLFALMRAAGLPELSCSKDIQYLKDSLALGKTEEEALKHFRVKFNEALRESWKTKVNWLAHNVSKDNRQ

[4] = molecular target: T2, SNF-related serine/threonine-protein kinase (Homo sapiens) (UniProt Q9NRH2); assay: Selectivity interaction (KinomeScan (DiscoverX)) EUB0000607a SNRK; conditions: at 10 µM
T2 sequence (whole entry): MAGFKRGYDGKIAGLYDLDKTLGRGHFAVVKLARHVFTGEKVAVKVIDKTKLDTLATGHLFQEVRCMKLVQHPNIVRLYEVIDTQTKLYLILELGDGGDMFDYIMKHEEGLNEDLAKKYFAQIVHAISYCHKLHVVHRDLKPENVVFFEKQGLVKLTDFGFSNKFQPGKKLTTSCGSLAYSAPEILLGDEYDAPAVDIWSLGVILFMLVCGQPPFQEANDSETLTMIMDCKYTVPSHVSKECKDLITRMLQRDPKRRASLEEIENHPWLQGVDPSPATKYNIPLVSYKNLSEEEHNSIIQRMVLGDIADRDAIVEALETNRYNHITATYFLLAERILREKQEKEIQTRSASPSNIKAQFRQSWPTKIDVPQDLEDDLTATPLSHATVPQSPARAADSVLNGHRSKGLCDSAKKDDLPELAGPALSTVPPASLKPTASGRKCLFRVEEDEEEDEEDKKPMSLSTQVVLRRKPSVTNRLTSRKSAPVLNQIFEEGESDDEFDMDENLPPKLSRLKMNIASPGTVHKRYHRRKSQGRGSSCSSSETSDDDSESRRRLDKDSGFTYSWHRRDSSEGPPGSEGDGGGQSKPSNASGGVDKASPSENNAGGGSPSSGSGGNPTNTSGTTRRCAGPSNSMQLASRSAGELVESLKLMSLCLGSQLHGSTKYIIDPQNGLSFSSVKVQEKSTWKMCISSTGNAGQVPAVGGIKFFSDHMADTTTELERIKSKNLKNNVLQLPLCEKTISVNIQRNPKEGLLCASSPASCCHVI

[5] = molecular target: T3, Cytoplasmic tyrosine-protein kinase BMX (Homo sapiens) (UniProt P51813); conditions: at 10 µM
T3 sequence (whole entry): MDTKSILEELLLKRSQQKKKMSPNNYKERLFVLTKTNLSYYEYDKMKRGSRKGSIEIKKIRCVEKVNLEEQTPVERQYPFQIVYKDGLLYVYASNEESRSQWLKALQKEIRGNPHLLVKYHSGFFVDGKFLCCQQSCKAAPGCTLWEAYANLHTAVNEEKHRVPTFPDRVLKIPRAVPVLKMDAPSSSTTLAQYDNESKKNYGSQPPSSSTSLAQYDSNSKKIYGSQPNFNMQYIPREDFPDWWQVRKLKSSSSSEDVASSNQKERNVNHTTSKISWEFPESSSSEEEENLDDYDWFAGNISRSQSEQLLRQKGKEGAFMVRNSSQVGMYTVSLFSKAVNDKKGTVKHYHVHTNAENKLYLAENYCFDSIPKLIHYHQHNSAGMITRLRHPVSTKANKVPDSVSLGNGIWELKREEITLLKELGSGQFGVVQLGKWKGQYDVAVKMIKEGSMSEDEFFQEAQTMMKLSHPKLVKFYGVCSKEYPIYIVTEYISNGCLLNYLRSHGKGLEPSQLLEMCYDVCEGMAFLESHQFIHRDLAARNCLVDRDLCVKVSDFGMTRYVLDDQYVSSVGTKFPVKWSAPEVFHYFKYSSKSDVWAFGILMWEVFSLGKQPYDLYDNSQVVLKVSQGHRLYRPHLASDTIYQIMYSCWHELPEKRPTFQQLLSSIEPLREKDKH

Receptor-type tyrosine-protein kinase FLT3 (Homo sapiens), sequence (P36888 whole entry): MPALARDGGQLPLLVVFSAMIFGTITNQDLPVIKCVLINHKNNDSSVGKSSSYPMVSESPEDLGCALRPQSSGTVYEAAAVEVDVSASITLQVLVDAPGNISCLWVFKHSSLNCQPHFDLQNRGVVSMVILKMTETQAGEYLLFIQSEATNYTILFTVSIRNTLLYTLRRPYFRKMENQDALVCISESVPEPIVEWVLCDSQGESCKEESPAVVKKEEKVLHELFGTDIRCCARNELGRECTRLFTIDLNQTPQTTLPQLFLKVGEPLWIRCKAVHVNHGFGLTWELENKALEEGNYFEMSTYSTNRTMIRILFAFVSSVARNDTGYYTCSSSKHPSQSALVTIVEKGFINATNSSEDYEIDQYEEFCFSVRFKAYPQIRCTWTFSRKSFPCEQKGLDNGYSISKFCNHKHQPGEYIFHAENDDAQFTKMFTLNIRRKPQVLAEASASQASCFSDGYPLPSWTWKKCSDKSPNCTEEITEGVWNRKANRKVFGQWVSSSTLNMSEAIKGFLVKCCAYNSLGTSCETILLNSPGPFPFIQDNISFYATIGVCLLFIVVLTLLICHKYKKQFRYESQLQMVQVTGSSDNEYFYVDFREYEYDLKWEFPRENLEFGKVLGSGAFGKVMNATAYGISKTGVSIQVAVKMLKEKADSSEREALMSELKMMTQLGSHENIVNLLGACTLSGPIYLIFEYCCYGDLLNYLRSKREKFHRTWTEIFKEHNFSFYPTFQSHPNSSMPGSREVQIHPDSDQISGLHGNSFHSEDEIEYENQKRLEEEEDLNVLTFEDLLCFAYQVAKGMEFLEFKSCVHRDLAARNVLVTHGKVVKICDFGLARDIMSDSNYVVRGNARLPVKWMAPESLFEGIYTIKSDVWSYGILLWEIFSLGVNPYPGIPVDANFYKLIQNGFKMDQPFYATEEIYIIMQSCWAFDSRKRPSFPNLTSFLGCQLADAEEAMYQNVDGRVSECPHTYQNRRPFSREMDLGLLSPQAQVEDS
Histone acetyltransferase KAT2B, sequence (Q92831 whole entry, looked up, canonical isoform): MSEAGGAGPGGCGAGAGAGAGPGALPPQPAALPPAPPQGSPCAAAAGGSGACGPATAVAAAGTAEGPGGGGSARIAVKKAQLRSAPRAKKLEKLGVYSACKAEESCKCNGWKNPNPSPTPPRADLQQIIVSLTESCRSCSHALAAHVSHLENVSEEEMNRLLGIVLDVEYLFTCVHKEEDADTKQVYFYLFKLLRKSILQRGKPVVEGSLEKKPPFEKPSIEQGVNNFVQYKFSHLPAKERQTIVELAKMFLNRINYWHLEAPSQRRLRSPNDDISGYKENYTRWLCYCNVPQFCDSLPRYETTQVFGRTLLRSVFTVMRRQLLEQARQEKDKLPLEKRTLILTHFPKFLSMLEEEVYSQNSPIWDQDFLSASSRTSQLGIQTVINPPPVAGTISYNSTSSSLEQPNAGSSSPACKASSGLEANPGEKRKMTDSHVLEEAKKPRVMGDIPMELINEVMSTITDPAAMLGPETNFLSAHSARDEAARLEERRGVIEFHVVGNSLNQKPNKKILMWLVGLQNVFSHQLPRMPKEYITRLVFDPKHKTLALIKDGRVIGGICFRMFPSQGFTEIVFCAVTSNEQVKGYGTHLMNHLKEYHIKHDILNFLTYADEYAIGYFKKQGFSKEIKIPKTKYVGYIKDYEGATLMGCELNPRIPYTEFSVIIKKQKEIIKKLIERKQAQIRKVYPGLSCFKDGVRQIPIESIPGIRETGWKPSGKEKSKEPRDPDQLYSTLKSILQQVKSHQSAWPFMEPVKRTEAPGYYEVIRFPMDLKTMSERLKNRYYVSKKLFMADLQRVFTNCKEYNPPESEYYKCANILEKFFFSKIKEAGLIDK

O=C(NOC[C@H](O)CO)c1ccc(F)c(F)c1Nc1ccc(I)cc1F
% of control [1]: 80%

Cc1cc(CN)cc(C)c1-c1ncn(C)c1-c1cncn1C
dTM [2]: -0.88 K

N#Cc1cccc(-c2c[nH]c3ncnc(N4CCOCC4)c23)c1
% of inhibition [3]: -12%

CNC(=O)Nc1ccc(-c2nc(N3CC4CCC(C3)O4)c3cnn(C4CCC5(CC4)OCCO5)c3n2)cc1
% of control [4]: 100%

CCN(CC)CCCCNc1ncc2cc(-c3cc(OC)cc(OC)c3)c(NC(=O)NC(C)(C)C)nc2n1
% of control [5]: 100%
